Measured values published in paper PMC6943417, “Housefly Pupae-Derived Antioxidant Peptides Exerting Neuroprotective Effects on Hydrogen Peroxide-Induced Oxidative Damage in PC12 Cells” (Molecules, 2019).
Where no end group is shown, it is not given here.

System: pepsin and pancreatin
Format: in vitro ADME
Description: The ABTS cation radical scavenging activity assay was conducted according to the manufacture instruction. […] The ABTS cation radical scavenging activity was calculated by the following formula: ABTS cation radical scavenging activity (%) = (1 − A1/A0) × 100%(2) where A1 and A0 were the absorbances of sample group and control group, respectively. The sample solution of control group was replaced with deionized water. Ascorbic acid was used as a positive control.
Thermal stability of synthetic peptides was determined according to the method of Yarnpakdee et al. with minor modifications. The synthetic peptides were respectively incubated at 25, 60, 70, 80, 90 °C for 30 min and then measured their scavenging ability of ABTS cation radical. The ability of synthetic peptides against pH treatments was measured according to Zhu et al.. In brief, pH of peptide solution was adjusted to 1, 3, 5, 7, 9, 11, incubated at room temperature for 1 h, and then ABTS cation radical scavenging activity of the treated peptides was measured. A two-stage digestion of protease in vitro (pepsin-digestion for 1 h and then pancreatin-digestion for 2 h at 37 °C) was performed as described by Zhang et al.. The ABTS cation radical scavenging ability was evaluated to assess the peptides stability against GI digestion.

DFTPVCTTELGR [DR12, Asp-Phe-Thr-Pro-Val-Cys-Thr-Thr-Glu-Leu-Gly-Arg]
change in ABTS radical scavenging ability after simulated GI digestion: slight decrease

ARFEELCSDLFR [AR12, Ala-Arg-Phe-Glu-Glu-Leu-Cys-Ser-Asp-Leu-Phe-Arg]
change in ABTS radical scavenging ability after simulated GI digestion: no significant change
